Assay results taken from ChEMBL document CHEMBL3046969, “Synthesis, structure, and biological assay of cinnamic amides as potential EGFR kinase inhibitors” (Med Chem Res, 2013).

What was measured:
[1] = biological target: Epidermal growth factor receptor (Homo sapiens, UniProt P00533); assay: Inhibition of autophosphorylation of His6-tagged EGFR cytoplasmic domain (unknown origin) expressed in Sf9 cells by DELFIA time resolved fluorometry; format: cell-based
[2] = test system: MCF7; assay: cells; format: functional, cell-based; conditions: Homo sapiens, MCF7, 48 h
Description: Antiproliferative activity against Homo sapiens (human) MCF-7 cells overexpressing EGFR assessed as inhibition of cell survival after 48 hr by MTT assay

Epidermal growth factor receptor, sequence (P00533 whole entry, the tested form may be a part): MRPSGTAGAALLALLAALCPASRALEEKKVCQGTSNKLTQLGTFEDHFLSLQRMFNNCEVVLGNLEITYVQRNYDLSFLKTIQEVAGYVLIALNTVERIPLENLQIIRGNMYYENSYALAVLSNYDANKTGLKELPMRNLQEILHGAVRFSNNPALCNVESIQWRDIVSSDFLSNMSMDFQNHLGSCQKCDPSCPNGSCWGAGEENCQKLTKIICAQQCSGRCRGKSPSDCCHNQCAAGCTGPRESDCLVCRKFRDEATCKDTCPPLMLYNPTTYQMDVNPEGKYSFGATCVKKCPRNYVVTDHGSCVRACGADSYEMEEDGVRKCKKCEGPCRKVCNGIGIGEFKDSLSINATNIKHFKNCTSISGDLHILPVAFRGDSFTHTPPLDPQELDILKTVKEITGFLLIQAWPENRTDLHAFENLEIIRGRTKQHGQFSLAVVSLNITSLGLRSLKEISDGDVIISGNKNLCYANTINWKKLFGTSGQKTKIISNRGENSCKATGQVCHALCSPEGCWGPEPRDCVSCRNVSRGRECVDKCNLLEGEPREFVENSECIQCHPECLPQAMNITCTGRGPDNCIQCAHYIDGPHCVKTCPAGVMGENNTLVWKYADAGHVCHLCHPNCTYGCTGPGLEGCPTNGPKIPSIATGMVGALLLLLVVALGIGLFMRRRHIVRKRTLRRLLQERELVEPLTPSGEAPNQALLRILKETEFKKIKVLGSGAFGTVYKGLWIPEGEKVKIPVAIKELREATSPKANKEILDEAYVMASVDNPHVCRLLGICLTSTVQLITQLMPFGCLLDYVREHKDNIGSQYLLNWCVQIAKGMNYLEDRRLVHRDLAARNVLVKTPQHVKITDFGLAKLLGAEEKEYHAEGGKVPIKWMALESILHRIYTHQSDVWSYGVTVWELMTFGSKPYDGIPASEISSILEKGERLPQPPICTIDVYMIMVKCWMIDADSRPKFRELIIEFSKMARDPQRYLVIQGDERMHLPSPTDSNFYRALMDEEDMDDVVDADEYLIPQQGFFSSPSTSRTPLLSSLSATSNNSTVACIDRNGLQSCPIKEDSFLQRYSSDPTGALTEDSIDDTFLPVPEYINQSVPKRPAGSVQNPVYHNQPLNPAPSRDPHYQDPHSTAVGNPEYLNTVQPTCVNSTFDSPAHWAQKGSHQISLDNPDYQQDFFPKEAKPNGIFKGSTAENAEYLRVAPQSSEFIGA

SMILES | IC50 [1] | IC50 [2]
CCCCCCCCCCCCNC(=O)/C=C/c1ccccc1 [N-DODECYLCINNAMAMIDE] | 38.5 µM | 13.4 µM
O=C(/C=C/c1ccccc1)Nc1cc(F)cc(F)c1 | 13.2 µM | 4.65 µM
C#Cc1cccc(Nc2ncnc3cc(OCCOC)c(OCCOC)cc23)c1 [ERLOTINIB] |  | 0.22 µM
O=C(/C=C/c1ccccc1)Nc1ccc(F)cc1F | 11.7 µM | 4.14 µM
O=C(/C=C/c1ccccc1)Nc1cc(Cl)cc(Cl)c1 | 13.9 µM | 4.47 µM
CC(C)(C)NC(=O)/C=C/c1ccccc1 [N-TERT-BUTYLCINNAMAMIDE] | 29.8 µM | 11.1 µM
O=C(/C=C/c1ccccc1)Nc1cc(F)c(F)c(F)c1 | 12.9 µM | 2.89 µM
O=C(/C=C/c1ccccc1)Nc1ccc(Cl)cc1Cl | 16.2 µM | 4 µM
CCOc1ccccc1NC(=O)/C=C/c1ccccc1 | 9.35 µM | 2.43 µM

Second part, the molecule after the results:

IC50 [1] | IC50 [2] | SMILES
14.6 µM | 5.39 µM | CC(C)c1ccc(NC(=O)/C=C/c2ccccc2)cc1
10.2 µM | 3.3 µM | CCOc1ccc(NC(=O)/C=C/c2ccccc2)cc1
19.7 µM | 5.83 µM | Cc1cccc(NC(=O)/C=C/c2ccccc2)c1 [N-M-TOLYLCINNAMAMIDE]
12.7 µM | 3.26 µM | Cc1ccc(NC(=O)/C=C/c2ccccc2)cc1 [N-P-TOLYLCINNAMAMIDE]
12.3 µM | 3.17 µM | Cc1ccccc1NC(=O)/C=C/c1ccccc1 [N-O-TOLYLCINNAMAMIDE]
15.7 µM | 4.05 µM | O=C(/C=C/c1ccccc1)Nc1ccccc1Br
